In article PMC2575047 (Molecular pharmacology, 2008):
Read-outs that look alike come from different tables or passages of the source. Each block holds one compound with its values, some of them ahead of it.

Legend:
[1] = target: human S1P1 (Homo sapiens, UniProt P21453); type: cell-based
[2] = Brain exposure in C57Bl6 mice; type: in vivo; conditions: C57Bl6, mouse, ip, 10 mg/kg
[3] = Water solubility; type: physicochemical
[4] = target: T1, human S1P1-GFP (Homo sapiens, UniProt P21453); assay: S1P1-GFP internalization in HEK293 cells; type: cell-based
[5] = target: S1P1 R^120A mutant (Homo sapiens, UniProt P21453, R120A); type: cell-based; conditions: for Emax: CHO-K1; for EC50: without W146
[6] = target: S1P1 E^121A mutant (Homo sapiens, UniProt P21453, E121A); type: cell-based; conditions: for EC50: without W146
[7] = target: T1, human S1P1-GFP; assay: S1P1-GFP phosphorylation, P^32-orthophosphate labeled HEK293 cells; type: cell-based
[8] = tested on: blood lymphocytes (WBC, B220+, CD4+, CD8+); assay: CYM-5442 mediated lymphopenia in mice; type: in vivo, C57BL6 mice; conditions: for B220^+ cells, percent relative to animals receiving both drug vehicles / CD4^+ cells, percent relative to animals receiving both drug vehicles / CD8^+ cells, percent relative to animals receiving both drug vehicles: W146 20 mg/kg i.p. 30 min before, CYM-5442 2 mg/kg
[9] = target: human S1P5 (Homo sapiens, UniProt Q9H228); assay: S1P5 agonist format, TANGO S1P5-bla U2OS cells; type: cell-based
[10] = Pharmacokinetics in Sprague Dawley rats; type: in vivo; conditions: rat
[11] = target: human wild-type S1P1 (WT) (Homo sapiens, UniProt P21453); type: cell-based
[12] = Serum drug concentration in the lymphopenia studies; type: in vivo, C57BL6 mice; conditions: mice; for serum drug concentration (± SD): W146 20 mg/kg + CYM-5442 2 mg/kg group, 5 h
[13] = target: T1, human S1P1-GFP; assay: S1P1-GFP ubiquitination in HEK293 cells; type: cell-based
[14] = Sprague Dawley, plasma, iv, 1 mg/kg
[15] = Sprague Dawley, plasma, po, 2 mg/kg
[16] = EC50, activation of p42/p44 MAPK phosphorylation, WT, without W146

Chain of human S1P1 (P21453 whole entry): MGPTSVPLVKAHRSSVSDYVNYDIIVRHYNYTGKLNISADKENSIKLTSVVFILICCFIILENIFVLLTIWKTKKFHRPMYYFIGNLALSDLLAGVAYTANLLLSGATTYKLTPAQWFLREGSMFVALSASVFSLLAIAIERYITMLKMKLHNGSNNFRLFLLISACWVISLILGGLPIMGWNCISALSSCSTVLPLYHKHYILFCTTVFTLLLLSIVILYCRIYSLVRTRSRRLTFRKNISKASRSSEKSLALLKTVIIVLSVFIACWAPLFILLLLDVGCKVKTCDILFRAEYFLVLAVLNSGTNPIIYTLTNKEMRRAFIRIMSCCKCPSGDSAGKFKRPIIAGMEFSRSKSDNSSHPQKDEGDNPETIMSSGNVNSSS
Chain of human wild-type S1P1 (WT) (P21453 whole entry): as above
T1 sequence (P21453 whole entry): as above
Chain of S1P1 R^120A mutant (P21453 whole entry R120A): as the sequence (P21453 whole entry) above, with R120A counted along it
Chain of S1P1 E^121A mutant (P21453 whole entry E121A): as the sequence (P21453 whole entry) above, with E121A counted along it
Chain of human S1P5 (Q9H228 whole entry): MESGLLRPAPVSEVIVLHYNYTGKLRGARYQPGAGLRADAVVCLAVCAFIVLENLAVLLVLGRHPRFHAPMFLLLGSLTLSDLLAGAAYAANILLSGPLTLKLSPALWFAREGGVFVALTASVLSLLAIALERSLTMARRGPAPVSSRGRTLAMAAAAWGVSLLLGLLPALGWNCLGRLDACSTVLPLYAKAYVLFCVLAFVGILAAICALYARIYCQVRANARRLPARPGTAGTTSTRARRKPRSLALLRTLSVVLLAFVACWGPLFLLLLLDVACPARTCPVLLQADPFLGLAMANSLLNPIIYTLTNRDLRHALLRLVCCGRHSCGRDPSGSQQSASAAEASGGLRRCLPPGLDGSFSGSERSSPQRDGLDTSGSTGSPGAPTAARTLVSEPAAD

SMILES: CCOc1ccc(-c2nc(-c3cccc4c3CCC4NCCO)no2)cc1OCC (centres unmarked) [CYM-5442, 2-(4-(5-(3,4-diethoxyphenyl)-1,2,4-oxadiazol-3-yl)-2,3-dihydro-1H-inden-1-ylamino) ethanol]
EC50 [1]: 1.35 nM
agonist efficacy compared to SEW2871 ([1]; CRE reporter, agonist format): full agonist compared to SEW2871
more potent than SEW2871 in vitro ([1]; depending on which agonist format was used): 10-50 fold
Emax ([1]; read-out: Agonist format (Emax)): 100%
concentration at 2 h ([2]; brain): 13700 ± 2900 nM
concentration at 2 h ([2]; plasma): 1080 ± 300 nM
water solubility [3]: moderately water-soluble
S1P1-GFP internalization ([4]; 500 nM): stimulated the internalization of S1P1-GFP receptor
Emax [5]: 100%
EC50 ([5]; EC50, p42/p44 MAPK activity, R^120A): 67 nM
EC50 ([5]; LogEC50, R^120A, log EC50 printed negative): 63.1 nM
rightward shift in EC50 by 10 μM W146 ([5]; R^120A): 3 fold
Emax ([6]; CHO-K1): 100%
rightward shift in potency by W146 preincubation ([6]; E^121A): 10 fold
EC50 ([6]; LogEC50, E^121A, log EC50 printed negative): 126 nM
EC50 ([6]; mean EC50, activation of p42/p44 MAPK, E^121A): 134 nM
S1P1 phosphorylation ([7]; 500 nM): stimulated S1P1 phosphorylation in a time-dependent manner
decrease of B-lymphocytes, of vehicle ([8]; abstract): 65%
decrease of T-lymphocytes, of vehicle ([8]; abstract): 85%
reduction of CD4^+, CD8^+ and B220^+ cell counts, of vehicle ([8]; mice, 2 mg/kg, 5 h): approximately 50%
decrease of B220^+ B-cells compared to vehicle ([8]; mice, 10 mg/kg i.p., 5 h): 63%
decrease of CD4^+ T-cell counts, of vehicle ([8]; mice, 10 mg/kg i.p., 5 h): 83%
decrease of CD8^+ T-cell counts, of vehicle ([8]; mice, 10 mg/kg i.p., 5 h): 84%
decrease of WBC counts vs. vehicle ([8]; mice, 10 mg/kg i.p., 5 h): 64%
% CD4^+ ([8]; mice, 10 mg/kg i.p., 5 h, vehicle 11.5±0.2): 1.9±0.2 %
WBC (K/mm^3) ([8]; mice, 10 mg/kg i.p., 5 h, vehicle 11.9±0.2): 4.3±0.4 K/mm^3
% CD8^+ ([8]; mice, 10 mg/kg i.p., 5 h, vehicle 11.9±0.3): 1.9±0.4 %
% B220^+ ([8]; mice, 10 mg/kg i.p., 5 h, vehicle 40.5±0.6): 14.7±0.5 %
B220^+ cells, percent relative to animals receiving both drug vehicles ([8]; mice, 5 h): 46.0±18.1 %
CD4^+ cells, percent relative to animals receiving both drug vehicles ([8]; mice, 5 h): 53.5 ± 6.5 %
CD8^+ cells, percent relative to animals receiving both drug vehicles ([8]; mice, 5 h): 47.4±7.5 %
selectivity for S1P1 over S1P5 [9]: 10,000 fold
Emax ([9]; U2OS, read-out: Agonist format (Emax)): 20%
AUC [10, 14]: 0.57 ± 0.1 µM·h
Cmax [10, 14]: 220 ± 18 nM
MRT [10, 14]: 3.54 ± 0.38 h
Tmax [10, 14]: 0.083 h
clearance [10, 14]: 72.9 ± 11.7 mL/min/kg
half-life ([10]; Sprague Dawley, plasma, iv, 1 mg/kg, half-life (t1/2)): 0.833 h
half-life ([10]; Sprague Dawley, plasma, iv, 1 mg/kg, t1/2, rat, 1 mg/kg i.v.): 3.05 ± 0.37 h
bioavailability ([10]; Sprague Dawley, plasma, oral, 2 mg/kg): 20.5 ± 4.67%
AUC [10, 15]: 0.23 ± 0.053 µM·h
Cmax [10, 15]: 36 ± 7.2 nM
MRT [10, 15]: 6.35 ± 2.1 h
Tmax [10, 15]: 1.17 ± 0.76 h
half-life ([10]; Sprague Dawley, plasma, po, 2 mg/kg, half-life (t1/2), P.O.): 3 h
half-life ([10]; Sprague Dawley, plasma, po, 2 mg/kg, t1/2, rat, 2 mg/kg PO): 4 ± 1.45 h
AUC (% extrap,ob) ([10]; 1 mg/kg i.v.): 11.35 ± 14.20%
AUC (% extrap,ob) ([10]; 2 mg/kg PO): 27.80 ± 14.20%
Cl ([10]; 2 mg/kg PO): 360.1 ± 73.3 mL/min/kg
Emax ([11]; CHO-K1): 70%
EC50 [11, 16]: 46 nM
serum drug concentration (± SD) [12]: 190 ± 40 nM
serum CYM-5442 concentration required for induction and maintenance of lymphopenia ([12]; i.p.): ~50 nM
S1P1-GFP receptor ubiquitination ([13]; 1 h incubation): stimulated receptor ubiquitination (UB-S1P1-GFP) to AFD-R levels

Emax [5]: 25%
p42/p44 MAPK activity in the mutant ([5]; R^120A): near loss of p42/p44 MAPK activity
EC50 ([11]; EC50, activation of p42/p44 MAPK phosphorylation, WT, 10 μM W146 prior to agonist): 140 nM
EC50 [11, 16]: 2.3 nM
EC50 ([11]; LogEC50, WT, without W146, log EC50 printed negative, 5 min stimulation): 2.51 nM
rightward shift in potency by 10 μM W146 ([11]; WT, agonist with W146 vs agonist alone): 60 fold
SMILES: CCCCCCCCCCCCC/C=C/[C@@H](O)[C@@H](N)COP(=O)(O)O [S1P, Sphingosine-1 phosphate]
p42/p44 MAPK activation in the mutant ([6]; E^121A): did not lead to significant p42/p44 MAPK activation

block of S1P and CYM-5442 stimulated P42/P44 MAPK phosphorylation ([11]; 10 μM pre-incubation): completely blocked
SMILES: N#CC(=C(/N)Sc1ccccc1N)/C(C#N)=C(/N)Sc1ccccc1N [U0126]

effect on internalization of S1P1-GFP by CYM-5442 ([4]; 10 μM preincubation): completely blocked
effect of antagonist alone on S1P1 phosphorylation ([7]; 10 μM): no effect
effect on CYM-5442-mediated S1P1 phosphorylation ([7]; 10 μM, 30 min pre-incubation): completely abolished
inhibition of CYM-5442-mediated p42/p44 MAPK phosphorylation ([11]; WT cells, 10 μM W146 preincubation): complete inhibition
serum drug concentration (± SD) [12]: 1760 ± 310 nM
effect on CYM-5442-stimulated S1P1 ubiquitination ([13]; pre-incubation 30 min): nearly abolish
SMILES: CCCCCCc1cccc(NC(=O)[C@H](N)CCP(=O)(O)O)c1 [W146, (R)-3-Amino-(3-hexylphenylamino)-4-oxobutylphosphonic acid, reference compound]
effect of antagonist alone on internalization [4]: did not have an effect on internalization
reversal of CYM-5442 effects on B-220^+, CD4^+ and CD8^+ cell counts ([8]; W146 20 mg/kg 30 min before CYM-5442 2 mg/kg): partially recover
B220^+ cells, percent relative to animals receiving both drug vehicles ([8]; mice, 5 h): 114.7±5.9%
CD4^+ cells, percent relative to animals receiving both drug vehicles ([8]; mice, 5 h): 108.1 ±17.4%
CD8^+ cells, percent relative to animals receiving both drug vehicles ([8]; mice, 5 h): 112.2±19.6%
